From PubChem BioAssay (NCI)
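A five-concentration, 48-hour dose response in 96-well plates underlies each endpoint, interpolated linearly between surrounding concentrations. GI50 is the concentration that inhibits growth by half. At the TGI there is no net growth.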

Columns and labels:
Test in all cases: inhibition of tumour cell growth, NCI panel, 48 h
HOP-62 NSCLC = system: HOP-62 NSCLC
NCI-H23 lung = system: NCI-H23 lung
SK-MEL-2 melanoma = system: SK-MEL-2 melanoma
UACC-62 melanoma = system: UACC-62 melanoma
OVCAR-3 ovarian = system: OVCAR-3 ovarian
MDA-MB-231 breast = system: MDA-MB-231 breast
OVCAR-8 ovarian = system: OVCAR-8 ovarian
HCT-15 colon = system: HCT-15 colon
M14 melanoma = system: M14 melanoma
NCI/ADR-RES ovarian = system: NCI/ADR-RES ovarian
MCF7 breast = system: MCF7 breast
UO-31 renal = system: UO-31 renal
KM12 colon = system: KM12 colon
PC-3 prostate = system: PC-3 prostate
COLO 205 colon = system: COLO 205 colon
OVCAR-5 ovarian = system: OVCAR-5 ovarian
HCC-2998 colon = system: HCC-2998 colon
HS 578T breast = system: HS 578T breast
MALME-3M melanoma = system: MALME-3M melanoma
UACC-257 melanoma = system: UACC-257 melanoma
U251 CNS = system: U251 CNS
MOLT-4 leukemia = system: MOLT-4 leukemia
SK-OV-3 ovarian = system: SK-OV-3 ovarian
SNB-75 CNS = system: SNB-75 CNS
RXF 393 renal = system: RXF 393 renal
SF-539 CNS = system: SF-539 CNS
SN12C renal = system: SN12C renal
SF-268 CNS = system: SF-268 CNS
SNB-19 CNS = system: SNB-19 CNS
HL-60(TB) leukemia = system: HL-60(TB) leukemia
HT29 colon = system: HT29 colon
K-562 leukemia = system: K-562 leukemia
NCI-H522 lung = system: NCI-H522 lung
NCI-H226 lung = system: NCI-H226 lung
SF-295 CNS = system: SF-295 CNS
RPMI-8226 leukemia = system: RPMI-8226 leukemia
A498 renal = system: A498 renal
SK-MEL-5 melanoma = system: SK-MEL-5 melanoma
SK-MEL-28 melanoma = system: SK-MEL-28 melanoma
CCRF-CEM leukemia = system: CCRF-CEM leukemia
EKVX NSCLC = system: EKVX NSCLC
T-47D breast = system: T-47D breast
A549 NSCLC = system: A549 NSCLC
LOX IMVI melanoma = system: LOX IMVI melanoma
OVCAR-4 ovarian = system: OVCAR-4 ovarian
CAKI-1 renal = system: CAKI-1 renal
ACHN renal = system: ACHN renal
BT-549 breast = system: BT-549 breast
DU-145 prostate = system: DU-145 prostate
HOP-92 NSCLC = system: HOP-92 NSCLC

In the case of `COc1cc2c(cc1OCCCCCN1CCN(c3ncnc4ccccc34)CC1)N=CC1CCCN1C2=O` (stereo unspecified), the GI50 (HOP-62 NSCLC) is reported as 25.7 nM, the TGI (HOP-62 NSCLC) is reported as 358 nM and the GI50 (NCI-H23 lung) is reported as 34.2 nM. For the same compound, the TGI (NCI-H23 lung) was 196 nM, the GI50 (SK-MEL-2 melanoma) was 42.5 nM and the TGI (SK-MEL-2 melanoma) was 709 nM. It also gave a GI50 (UACC-62 melanoma) of 19.6 nM, a TGI (UACC-62 melanoma) of 38.3 nM and a GI50 (OVCAR-3 ovarian) of 22.3 nM. The TGI (OVCAR-3 ovarian) was 51.2 nM, the GI50 (MDA-MB-231 breast) was 19.3 nM and the TGI (MDA-MB-231 breast) was 60.4 nM. The GI50 (OVCAR-8 ovarian) was 33.4 nM, the TGI (OVCAR-8 ovarian) was > 81900 nM and the GI50 (HCT-15 colon) was 206 nM. The TGI (HCT-15 colon) was 4090 nM, the GI50 (M14 melanoma) was 32 nM and the TGI (M14 melanoma) was 128 nM. For the same compound, the GI50 (NCI/ADR-RES ovarian) was 378 nM, the TGI (NCI/ADR-RES ovarian) was > 36400 nM and the GI50 (MCF7 breast) was 16.2 nM. The TGI (MCF7 breast) was 923 nM, the GI50 (UO-31 renal) was 30 nM and the TGI (UO-31 renal) was 198 nM. The GI50 (KM12 colon) was 28.9 nM, the TGI (KM12 colon) was 952 nM and the GI50 (PC-3 prostate) was 21.8 nM. The TGI (PC-3 prostate) was 154 nM, the GI50 (COLO 205 colon) was 18.7 nM and the TGI (COLO 205 colon) was 40.8 nM. It also gave a GI50 (OVCAR-5 ovarian) of 35.9 nM, a TGI (OVCAR-5 ovarian) of 14700 nM and a GI50 (HCC-2998 colon) of 17.8 nM. The TGI (HCC-2998 colon) was 34.9 nM, the GI50 (HS 578T breast) was 27.5 nM and the TGI (HS 578T breast) was 84.2 nM. The GI50 (MALME-3M melanoma) was 30.3 nM, the TGI (MALME-3M melanoma) was 61.8 nM and the GI50 (UACC-257 melanoma) was 73.8 nM. For the same compound, the TGI (UACC-257 melanoma) was 568 nM, the GI50 (U251 CNS) was 25.2 nM and the TGI (U251 CNS) was 3980 nM. The GI50 (MOLT-4 leukemia) was 19.4 nM, the TGI (MOLT-4 leukemia) was 70.6 nM and the GI50 (SK-OV-3 ovarian) was 33.4 nM. It also gave a TGI (SK-OV-3 ovarian) of 379 nM, a GI50 (SNB-75 CNS) of 16.8 nM and a TGI (SNB-75 CNS) of 82.3 nM. It also gave a GI50 (RXF 393 renal) of 25.3 nM, a TGI (RXF 393 renal) of 45.4 nM and a GI50 (SF-539 CNS) of 26.8 nM. For the same compound, the TGI (SF-539 CNS) was 68.5 nM, the GI50 (SN12C renal) was 30 nM and the TGI (SN12C renal) was 4650 nM. For the same compound, the GI50 (SF-268 CNS) was 34.9 nM, the TGI (SF-268 CNS) was 2070 nM and the GI50 (SNB-19 CNS) was 33.3 nM. It also gave a TGI (SNB-19 CNS) of 3530 nM, a GI50 (HL-60(TB) leukemia) of 25.4 nM and a GI50 (HT29 colon) of 27.5 nM. For the same compound, the TGI (HT29 colon) was 10800 nM, the GI50 (K-562 leukemia) was < 17.4 nM and the TGI (NCI-H522 lung) was 26.9 nM. For the same compound, the GI50 (NCI-H226 lung) was 20.3 nM, the TGI (NCI-H226 lung) was 47.9 nM and the GI50 (SF-295 CNS) was 22.6 nM. The TGI (SF-295 CNS) was 67.1 nM, the GI50 (RPMI-8226 leukemia) was < 13.8 nM and the TGI (RPMI-8226 leukemia) was 35 nM. It also gave a GI50 (A498 renal) of 18 nM, a TGI (A498 renal) of 34 nM and a GI50 (SK-MEL-5 melanoma) of 18 nM. It also gave a TGI (SK-MEL-5 melanoma) of 33.8 nM, a GI50 (SK-MEL-28 melanoma) of 26.4 nM and a TGI (SK-MEL-28 melanoma) of 56.9 nM. It also gave a GI50 (CCRF-CEM leukemia) of 13.3 nM, a TGI (CCRF-CEM leukemia) of 72.7 nM and a GI50 (EKVX NSCLC) of 114 nM. It also gave a TGI (EKVX NSCLC) of 724 nM, a GI50 (T-47D breast) of 13.9 nM and a TGI (T-47D breast) of 42.8 nM. The GI50 (A549 NSCLC) was 30.7 nM, the TGI (A549 NSCLC) was 25800 nM and the GI50 (LOX IMVI melanoma) was 16.7 nM. The GI50 (OVCAR-4 ovarian) was 49.8 nM, the TGI (OVCAR-4 ovarian) was 2280 nM and the GI50 (CAKI-1 renal) was 29.2 nM. The TGI (CAKI-1 renal) was 1170 nM, the GI50 (ACHN renal) was 52.3 nM and the TGI (ACHN renal) was 4150 nM. For the same compound, the GI50 (BT-549 breast) was 22.9 nM, the TGI (BT-549 breast) was 62.8 nM and the GI50 (DU-145 prostate) was 27.1 nM. For the same compound, the TGI (DU-145 prostate) was 970 nM, the GI50 (HOP-92 NSCLC) was 22.4 nM and the TGI (HOP-92 NSCLC) was 69 nM.
